From ChEMBL document CHEMBL5050844 (2019)

Tests used:
Assay type in all cases: functional
[1] = Induction of anti-CD3 antibodies-stimulated human T cell activation in immunocompetent mouse assessed fold increase in IL-2 secretion at 90 mg/kg, ip administered twice a day
[2] = Induction of anti-CD3 antibodies-stimulated human T cell activation in immunocompetent mouse assessed fold increase in TNFalpha secretion at 90 mg/kg, ip administered twice a day
[3] = Induction of anti-CD3 antibodies-stimulated human CD8+ T cell activation in immunocompetent mouse assessed fold increase in CD25 expression at 90 mg/kg, ip administered twice a day
[4] = Induction of anti-CD3 antibodies-stimulated human T cell activation in immunocompetent mouse assessed fold increase in IFN-gamma secretion at 90 mg/kg, ip administered thrice a day
[5] = Induction of anti-CD3 antibodies-stimulated human T cell activation in immunocompetent mouse assessed fold increase in IL-2 secretion at 90 mg/kg, ip administered thrice a day
[6] = Induction of anti-CD3 antibodies-stimulated human T cell activation in immunocompetent mouse assessed fold increase in TNF-alpha secretion at 90 mg/kg, ip administered thrice a day
[7] = Induction of anti-CD3 antibodies-stimulated human T cell activation in immunocompetent mouse assessed fold increase in IFN-gamma secretion at 90 mg/kg, ip administered twice a day
[8] = Induction of anti-CD3 antibodies-stimulated human CD8+ T cell activation in immunocompetent mouse assessed fold increase in CD25 expression at 45 mg/kg, po administered twice a day
Further: reference of the scale not given here.

Row | Structure (SMILES) | fold change (FC) [1] | fold change (FC) [2] | fold change (FC) [3] | fold change (FC) [4] | fold change (FC) [5] | fold change (FC) [6] | fold change (FC) [7] | fold change (FC) [8]
1 | C[C@@H](Sc1nncn1C)c1cccc(NC(=O)c2cccc(C(F)(F)F)n2)c1 | <1 | 1 | <1 | <1 | <1 | <1 | <1 | 
2 | C[C@H](Sc1nncn1C)c1cccc(NC(=O)c2cccc(C(F)(F)F)n2)c1 | >2.5 | >2.5 | <1 | 2.01 | >2.5 | >2.5 | 1 | 
3 | Cn1cnnc1CC1(c2cccc(N3Cc4c(cc(CN5CCC6(CC6)C5)cc4C(F)(F)F)C3=O)c2)COC1 |  |  |  |  |  |  |  | 1
4 | Cc1cc(C(=O)Nc2cccc(C3(Cc4nncn4C)COC3)c2)nc(C2CC2)n1 |  |  |  |  |  |  |  | 1
